The values that follow come from ChEMBL document CHEMBL1201862, “PubChem BioAssay data set” (2004).

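Growth conditions: 96-well plates. Treatment: test compound, 48 hours, 5 concentrations. Analysis: linear interpolation between bracketing concentrations; unreached endpoints set to highest concentration. At the GI50, growth is halved.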 Activity calls are given as the source filed them. Cut-off read from the data, not from the text of the source: active = GI50 up to about 1.1 µM and inactive = higher.

Test systems include CCRF-CEM; U-251; SK-MEL-28; SK-MEL-5; M14; NCI-H522; UO-31; MCF7; MDA-MB-231; UACC-257; MDA-N; RXF 393; HL-60; T47D; CAKI-1; SNB-75; OVCAR-3; SNB-19; TK-10; HOP-92.
What all share (assay): NCI-60 cell line screen, 48 h

For the compound `CCC/N=C(/NC(=O)c1ccc(Cl)cc1)SC`, the GI50 in the test with CCRF-CEM was > 100 µM (inactive); in the test with U-251 it was > 100 µM (inactive); in the test on SK-MEL-28 it was > 100 µM (inactive); in the test with SK-MEL-5, 48.6 µM (inactive); with M14 it was > 100 µM (inactive); in the test with NCI-H522, 52 µM (inactive). Moreover, the GI50 was 15 µM (inactive) in the test with UO-31; 75.9 µM (inactive) in the test on MCF7; > 100 µM (inactive) in the test on MDA-MB-231; 74.5 µM (inactive) in the test on UACC-257; > 100 µM (inactive) in the test on MDA-N; > 100 µM (inactive) with RXF 393. Also, the GI50 is 58.7 µM (inactive) in the test on HL-60; 65.9 µM (inactive) with T47D; > 100 µM (inactive) with CAKI-1; 11.4 µM (inactive) with SNB-75; 0.0473 µM (active) with OVCAR-3; 17.6 µM (inactive) in the test on SNB-19.
In the case of `O=C(Nc1ccccc1)c1cc2c(cc1Cl)SC(NNCCO)=NS2(=O)=O`, the GI50 in the test on CCRF-CEM, in the test on U-251, in the test with SK-MEL-28, in the test on SK-MEL-5, with M14 and with UO-31 was > 100 µM (inactive) each time. In addition, the GI50 with MCF7, in the test on MDA-MB-231, with UACC-257, with RXF 393, in the test with HL-60 and with T47D was > 100 µM (inactive) in each case. Besides, the GI50 in the test on TK-10 is > 100 µM (inactive); in the test with CAKI-1 it was > 100 µM (inactive); with SNB-75, 99.5 µM (inactive); in the test with HOP-92, > 100 µM (inactive); with SNB-19, > 100 µM (inactive).
Take `CCSc1c(C)c2c(n(Cc3ccc(OC)cc3)c1=O)Cc1ccccc1C2`: the GI50 is 2.02 µM (inactive) in the test with CCRF-CEM; 15 µM (inactive) with U-251; 92.7 µM (inactive) in the test on SK-MEL-28; 15.4 µM (inactive) in the test on SK-MEL-5; 10.9 µM (inactive) with M14; 11.9 µM (inactive) in the test on NCI-H522. In addition, the GI50 in the test on UO-31 was 12.4 µM (inactive); in the test with MCF7 it was 24.7 µM (inactive); in the test with MDA-MB-231, 20.7 µM (inactive); with UACC-257, 13.3 µM (inactive); with MDA-N it was 10.4 µM (inactive); in the test on RXF 393, 32.1 µM (inactive). In addition, the GI50 in the test with HL-60 is 6.17 µM (inactive); with T47D it was 30.5 µM (inactive); in the test with TK-10, 27.2 µM (inactive); with CAKI-1, 44 µM (inactive); with SNB-75, 21.9 µM (inactive); in the test with OVCAR-3 it was 20.1 µM (inactive). In the test on SNB-19, the GI50 is 18.2 µM (inactive).
In the case of `[O-][n+]1cn[n+]([O-])c2ccccc21`, the GI50 was 3.46 µM (inactive) in the test with CCRF-CEM; 32.4 µM (inactive) in the test on U-251; > 100 µM (inactive) with SK-MEL-28; > 10 µM (inactive) in the test with SK-MEL-5; 23.8 µM (inactive) with M14; 15.1 µM (inactive) in the test with NCI-H522. Also, the GI50 with UO-31 was 28.3 µM (inactive); in the test with MCF7, 14.3 µM (inactive); in the test with MDA-MB-231, 14.3 µM (inactive); with UACC-257 it was 16.9 µM (inactive); with MDA-N it was 20.1 µM (inactive); with RXF 393 it was 20.7 µM (inactive). Further, the GI50 in the test with HL-60 was 5.04 µM (inactive); with T47D, 5.97 µM (inactive); with TK-10, > 100 µM (inactive); in the test with CAKI-1, 18.9 µM (inactive); in the test with SNB-75, 66.5 µM (inactive); in the test with SNB-19, 84.1 µM (inactive).
For the compound `O=C(/C=C/c1ccsc1)c1ccc(Cl)s1`, the GI50 in the test with CCRF-CEM was 28.4 µM (inactive); with U-251, > 100 µM (inactive); in the test on SK-MEL-28, 55.1 µM (inactive); in the test with SK-MEL-5, > 100 µM (inactive); in the test on M14, > 100 µM (inactive); in the test on UO-31, 78.9 µM (inactive). Also, the GI50 was 22.5 µM (inactive) with MCF7; > 100 µM (inactive) in the test with MDA-MB-231; > 100 µM (inactive) in the test with UACC-257; 56.6 µM (inactive) with MDA-N; 24.8 µM (inactive) in the test with HL-60; > 100 µM (inactive) with T47D. Moreover, the GI50 in the test with TK-10, in the test on CAKI-1, with SNB-75 and in the test with SNB-19 was > 100 µM (inactive) each time.
Turning to `COc1ccc2c(c1)OCC1(O)Cc3ccccc3OC21` (stereo not drawn), the GI50 in the test with CCRF-CEM, with U-251, in the test with SK-MEL-5, in the test with M14, in the test on NCI-H522 and with UO-31 was > 100 µM (inactive) each time. Further, the GI50 with MCF7, in the test with MDA-MB-231, with UACC-257, with MDA-N, with T47D and in the test with TK-10 was > 100 µM (inactive) in each case. Moreover, the GI50 with CAKI-1, with SNB-75, with HOP-92 and with OVCAR-3 was > 100 µM (inactive) each time.
Turning to `Oc1c(/N=N\c2ccccc2)c2cccc3ccc4cccc1c4c32`, the GI50 was > 100 µM (inactive) in the test with CCRF-CEM; 42.7 µM (inactive) in the test with U-251; > 100 µM (inactive) in the test with SK-MEL-28; > 100 µM (inactive) with SK-MEL-5; > 100 µM (inactive) in the test with M14; > 100 µM (inactive) in the test with NCI-H522. Moreover, the GI50 is > 100 µM (inactive) in the test on UO-31; 94.4 µM (inactive) in the test on MDA-MB-231; > 100 µM (inactive) in the test with UACC-257; > 100 µM (inactive) with MDA-N; > 100 µM (inactive) in the test on RXF 393; > 100 µM (inactive) in the test with T47D. Besides, the GI50 was > 100 µM (inactive) in the test on TK-10; > 100 µM (inactive) in the test with CAKI-1; 38.6 µM (inactive) in the test on SNB-75; > 100 µM (inactive) with HOP-92; > 100 µM (inactive) with OVCAR-3; > 100 µM (inactive) in the test with SNB-19.
Take `CNC(c1ccncc1)C(NC)c1ccncc1` (stereo not drawn): the GI50 with CCRF-CEM, with U-251, in the test on SK-MEL-28, in the test with SK-MEL-5, in the test with M14 and in the test on NCI-H522 was > 100 µM (inactive) throughout. Further, the GI50 in the test with UO-31, in the test on MCF7, in the test on MDA-MB-231, with UACC-257, in the test on MDA-N and in the test with RXF 393 was > 100 µM (inactive) each time. Also, the GI50 in the test with HL-60, in the test with T47D, in the test on TK-10, with CAKI-1, in the test with SNB-75 and in the test on OVCAR-3 was > 100 µM (inactive) each time. Besides, the GI50 with SNB-19 was > 100 µM (inactive).
Regarding `O=C1C=CC(=O)N1n1c(-c2ccccc2)n[nH]c1=O`, the GI50 in the test on CCRF-CEM, with U-251, in the test with SK-MEL-5, with M14, in the test on NCI-H522 and with MCF7 was > 100 µM (inactive) each time. Moreover, the GI50 with MDA-MB-231, in the test on UACC-257, with MDA-N, with RXF 393, in the test on HL-60 and in the test on T47D was > 100 µM (inactive) in each case. The GI50 with TK-10, in the test with CAKI-1 and with OVCAR-3 was > 100 µM (inactive) throughout.
In the case of `CCCCCCNC(=O)c1cnc(Cl)cn1`, the GI50 in the test with CCRF-CEM is 13.7 µM (inactive); in the test with U-251, 11.5 µM (inactive); in the test on SK-MEL-28, 24 µM (inactive); in the test with SK-MEL-5 it was 16.8 µM (inactive); with M14, 13.2 µM (inactive); with NCI-H522, 0.206 µM (active). The GI50 in the test with UO-31 was 1.85 µM (inactive); with MCF7, 5.15 µM (inactive); in the test on MDA-MB-231, 16.7 µM (inactive); with UACC-257, 14.3 µM (inactive); in the test on HL-60 it was 23.8 µM (inactive); in the test with T47D it was 20 µM (inactive). In addition, the GI50 was 22.4 µM (inactive) with TK-10; 1.17 µM (inactive) in the test on CAKI-1; 21 µM (inactive) with SNB-75; 3.15 µM (inactive) in the test with HOP-92; 17.5 µM (inactive) in the test with SNB-19.
For `Clc1ccc(C(c2ccc(Cl)cc2)c2cncnc2)cc1`, the GI50 in the test with CCRF-CEM was 17.5 µM (inactive); in the test with U-251, 17.3 µM (inactive); with SK-MEL-28 it was 18.5 µM (inactive); in the test on SK-MEL-5 it was 13.2 µM (inactive); with M14, 16.4 µM (inactive); in the test on NCI-H522, 17.2 µM (inactive). Moreover, the GI50 in the test on UO-31 is 11.9 µM (inactive); in the test on MCF7 it was 15.3 µM (inactive); with MDA-MB-231 it was 17.7 µM (inactive); in the test with UACC-257 it was 19.3 µM (inactive); in the test on MDA-N, 14.2 µM (inactive); in the test on RXF 393, 12.6 µM (inactive). Moreover, the GI50 was 22.9 µM (inactive) with HL-60; 16.6 µM (inactive) with T47D; 16.9 µM (inactive) with TK-10; 18.6 µM (inactive) in the test on CAKI-1; 14.7 µM (inactive) in the test on OVCAR-3; 18.1 µM (inactive) in the test with SNB-19.
With `CN1N=C(c2ccncc2)OC1c1cccc(C(F)(F)F)c1` (stereo not drawn), the GI50 in the test on CCRF-CEM, in the test with U-251, in the test with SK-MEL-28, in the test on SK-MEL-5, in the test on M14 and in the test with NCI-H522 was > 100 µM (inactive) in each case. Moreover, the GI50 in the test on UO-31 is > 100 µM (inactive); in the test on MDA-MB-231 it was 41.2 µM (inactive); with UACC-257, > 100 µM (inactive); in the test on MDA-N, > 100 µM (inactive); in the test on RXF 393, > 100 µM (inactive); in the test on HL-60, 81.3 µM (inactive). The GI50 is 96.6 µM (inactive) in the test on T47D; > 100 µM (inactive) in the test on TK-10; 4.36 µM (inactive) in the test with SNB-75; 71.1 µM (inactive) in the test with OVCAR-3; > 100 µM (inactive) with SNB-19.
